Reference: patent US20060013852A1, “Use of organic compounds” (priority 2002, published 2006)

Tests used:
[1] = tested on: Ang II induced angiogenic response; assay: angiogenic response to locally delivered Ang II; assay type: in vivo; conditions: Ang II delivered locally in mice or rats
Source text: (§1) 4. […] CYR61, an angiogenic factor, is induced by Angiotensin II (Ang II) in vascular cells and tissue. Likewise, Ang II induces an angiogenic reponse when Angil is delivered locally in mice or rats.

[2] = tested on: neointimal lesion formation; assay: rat carotid artery balloon injury model; assay type: in vivo; conditions: local delivery to adventitia via Alzet minipump; early (9 days) and late (21-28 days) post-ballooning
Source text: Rat carotid arteries are balloon injured using a method described by Clowes et al. Lab. Invest. 1983; 49; 208-215. […] A P<0.05 is considered statistically significant.

[3] = tested on: restenotic lesion formation; assay: rabbit iliac stent model; assay type: in vivo, New Zealand White rabbit; conditions: for angiogenic response post-stenting: orally and locally via coated stent, 7 and 28 days post-stenting, vs placebo
Protocol: A combined angioplasty and stenting procedure is performed in New Zealand White rabbit iliac arteries. Iliac artery balloon injury is performed by inflating a 3.0×9.0 mm angioplasty balloon in the mid-portion of the artery followed by “pull-back” of the catheter for 1 balloon length. Balloon injury is repeated 2 times, and a 3.0×12 mm stent is deployed at 6 atm for 30 seconds in the iliac artery. Balloon injury and stent placement is then performed on the contralateral iliac artery in the same manner. A post-stent deployment angiogram is performed. […] The vascular section between the distal aorta and the proximal femoral arteries is excised and cleaned of periadventitial tissue. The stented section of artery is embedded in plastic and sections are taken from the proximal, middle, and distal portions of each stent. […] The vessel area is measured as the area within the EEL. Data are expressed as mean±SEM. […] A P<0.05 is considered statistically significant.
as §1

[4] = clinical study of aliskiren in dialysis patients after catheter insertion; assay type: in vivo, human; conditions: aliskiren 100 mg daily for 3 months; observation 6 months
Protocol: One hundred fifty prospective dialysis patients, who undergo successful insertion of an indwelling, large bore catheter, into a vein are selected for study. […] These drugs are administered for 3 consecutive months following catheter insertion.

Row | Compound | inhibition of Ang II induced angiogenic response in vivo [1] | inhibition of neointimal lesions [2] | angiogenic response post-stenting [3] | mean neointimal thickness ([3]; vs placebo-treated animals) | percent stent stenosis ([3]; vs placebo-treated animals) | prevention or reduction of vascular access dysfunction [4]
1 | CCCCC(=O)N(Cc1ccc(-c2ccccc2-c2nnn[nH]2)cc1)[C@H](C(=O)O)C(C)C [valsartan] | potent inhibition | potent inhibition | markedly inhibits | reduced | reduced | 
2 | COCCCOc1cc(C[C@@H](C[C@H](N)[C@@H](O)C[C@H](C(=O)NCC(C)(C)C(N)=O)C(C)C)C(C)C)ccc1OC [aliskiren, 2(S),4(S),5(S),7(S)-N-(3-amino-2,2-dimethyl-3-oxopropyl)-2,7-di(1-methylethyl)-4-hydroxy-5-amino-8-[4-methoxy-3-(3-methoxy-propoxy)phenyl]-octanamide] | potent inhibition | potent inhibition | markedly inhibits |  |  | efficacy
